Assay results published in ChEMBL document CHEMBL1201862, “PubChem BioAssay data set” (2004).
Calls of active or inactive are those of the source.

Experiments:
[1] = test system: P388/ADR; test: cells; format: functional; settings: Mus musculus
[2] = test system: SN12K1; test: cells; format: functional; settings: Homo sapiens
[3] = test system: P388; test: cells; format: functional; settings: Mus musculus
[4] = viability of PTEN-deleted HCT116 cells – cell-based, HCT116 PTEN knockout, dose response (AID 1047); format: functional;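 further: HCT116 colon tumor cells with PTEN knocked out; cells exposed to compound for 60 hours before readout; potency for loss of cell viability measured by luminescence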
[5] = viability of HCT116 lacking mutant beta-catenin – cell-based, human colon tumor, dose response (AID 1045); format: functional;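 further: HCT116 colon tumor cells with beta catenin knocked out; cells exposed to compound for 60 hours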
[6] = biological target: Cytochrome P450 2D6 (Homo sapiens, UniProt P10635);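 further: CYP2D6 member of a cytochrome P450 panel assay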
[7] = biological target: T1, Cytochrome P450 1A2 (Homo sapiens, UniProt P05177);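 further: PubChem cytochrome P450 panel assay, CYP1A2 panel member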
T1 sequence (P05177 whole entry): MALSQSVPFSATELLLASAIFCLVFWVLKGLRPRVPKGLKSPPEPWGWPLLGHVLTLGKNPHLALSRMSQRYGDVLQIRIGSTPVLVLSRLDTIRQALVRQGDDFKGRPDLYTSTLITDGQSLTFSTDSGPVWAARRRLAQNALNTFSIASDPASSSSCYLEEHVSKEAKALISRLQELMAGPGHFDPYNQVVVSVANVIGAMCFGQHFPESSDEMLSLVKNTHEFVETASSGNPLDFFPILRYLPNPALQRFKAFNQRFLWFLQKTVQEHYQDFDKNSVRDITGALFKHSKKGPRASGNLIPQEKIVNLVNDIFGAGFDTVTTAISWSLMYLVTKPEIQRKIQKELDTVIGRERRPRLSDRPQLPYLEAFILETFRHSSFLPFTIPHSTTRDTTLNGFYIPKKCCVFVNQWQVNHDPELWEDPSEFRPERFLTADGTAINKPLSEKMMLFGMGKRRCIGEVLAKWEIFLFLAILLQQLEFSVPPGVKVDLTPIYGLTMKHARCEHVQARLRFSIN

[8] = biological target: T2, High affinity choline transporter 1 (Homo sapiens, UniProt Q9GZV3); test: human choline transporter blockers, potency – cell-based, 5-point CRC, membrane potential dye, dose response (AID 504840); format: functional
T2 sequence (Q9GZV3 whole entry): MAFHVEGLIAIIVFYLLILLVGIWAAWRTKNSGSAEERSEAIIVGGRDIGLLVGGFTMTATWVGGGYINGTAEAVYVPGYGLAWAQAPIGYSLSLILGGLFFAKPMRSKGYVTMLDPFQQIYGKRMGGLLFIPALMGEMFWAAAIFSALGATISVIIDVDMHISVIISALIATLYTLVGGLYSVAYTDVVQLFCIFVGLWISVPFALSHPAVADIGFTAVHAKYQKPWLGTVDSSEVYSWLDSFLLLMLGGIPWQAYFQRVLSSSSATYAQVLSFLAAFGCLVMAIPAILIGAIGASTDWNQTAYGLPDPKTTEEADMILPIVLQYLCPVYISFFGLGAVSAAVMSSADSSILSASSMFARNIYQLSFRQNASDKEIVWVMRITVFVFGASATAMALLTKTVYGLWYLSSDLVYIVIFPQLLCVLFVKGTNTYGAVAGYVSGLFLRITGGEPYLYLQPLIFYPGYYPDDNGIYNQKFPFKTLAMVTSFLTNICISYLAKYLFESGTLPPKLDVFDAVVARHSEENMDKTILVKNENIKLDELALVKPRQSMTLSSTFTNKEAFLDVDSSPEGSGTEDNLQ

[9] = blockers of HIV-1 envelope-mediated cell-cell fusion – cherry-pick, dose response (AID 652057); format: functional, cell-based
[10] = HIV-1 AD8 envelope cell-cell fusion blockers – cherry-pick, dose response (AID 652062); format: functional, cell-based;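 further: luciferase signal from cell-cell fusion driven by HIV-1 clade B AD8 Env; potency is for inhibitors of fusion seen as a drop in luminescence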
[11] = test system: INS1; test: INS-1E survival protection against cytokine death – cell-based, luminescence, retest, dose response (AID 449756); format: functional; settings: Rattus norvegicus;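 further: cell death triggered by IL-1 beta plus TNF-alpha plus IFN-gamma mixture; protective hits raise ATP signal compared with cytokine alone wells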
[12] = microbe, parasite or virus in culture; format: functional; settings: Mycobacterium tuberculosis
[13] = biological target: T3, Calpain-2 catalytic subunit (Sus scrofa, UniProt P43367); test: m-calpain protease blockers, concentration series – biochemical, fluorogenic peptide substrate, dose response (AID 1420); format: functional
T3 sequence (P43367 whole entry): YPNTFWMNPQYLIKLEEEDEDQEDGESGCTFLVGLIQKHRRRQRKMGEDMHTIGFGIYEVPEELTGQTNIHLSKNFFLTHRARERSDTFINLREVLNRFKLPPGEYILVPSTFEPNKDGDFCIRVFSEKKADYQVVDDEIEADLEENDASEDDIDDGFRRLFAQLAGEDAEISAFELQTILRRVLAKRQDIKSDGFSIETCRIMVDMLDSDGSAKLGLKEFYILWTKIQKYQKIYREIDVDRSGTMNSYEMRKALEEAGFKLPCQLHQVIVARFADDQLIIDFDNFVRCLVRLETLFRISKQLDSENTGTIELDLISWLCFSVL

[14] = biological target: FAD-linked sulfhydryl oxidase ALR (Homo sapiens, UniProt P55789); test: ALR-catalysed DTT oxidation blockers – biochemical, H2O2 detection, luminescence, cherry-pick, dose response (AID 493248)
[15] = Trypanosoma cruzi growth suppression in host cells – NIH3T3 host cells, beta-gal luminescence, confirmation (AID 2044); format: functional, cell-based;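 further: intracellular parasites grown in NIH/3T3 mouse fibroblasts as host cells; luminescent beta-galactosidase reporter signal from transgenic T. cruzi replicating inside host cells; inhibitors lower the luminescence signal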
[16] = NIH3T3 cell viability loss – ATP luminescence, mouse fibroblasts, counter-screen, dose response (AID 2010); format: functional, cell-based;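 further: cells exposed to compound for about 90 hours before reading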
[17] = reduction of Shn3 3'UTR-driven luciferase in osteoblasts – cell-based, Clone20 osteoblasts, firefly luciferase, cherry-picked, dose response (AID 624132); format: functional;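 further: firefly luciferase luminescence from reporter carrying the Shn3 3'UTR in osteoblasts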
[18] = loss of viability in HepG2 cells – cell-based, CellTiter-Glo, cherry-picked, cytotoxicity control for Shn3 inhibitor project, dose response (AID 624134); format: functional
[19] = non-specific 3'UTR reporter inhibition in Clone20-Shn3RL – cell-based, Renilla luciferase, cherry-picked, counter-screen for Shn3 inhibitor project, dose response (AID 624133); format: functional
[20] = test system: Streptococcus sp. 'group A'; test: Streptococcus pyogenes SK(-)GAS viability under kanamycin – luminescence, BacTiterGlo, confirmation, counter-screen for streptokinase expression inhibitor project, dose response (AID 1900); format: functional, organism-based
[21] = test system: Streptococcus; test: GAS UMAA2166 growth inhibition – luminescence, BacTiterGlo, counter-screen for streptokinase expression inhibitor project, dose response (AID 1915); format: functional, organism-based;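 further: potency for reduction of bacterial viability or growth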

Sequence of FAD-linked sulfhydryl oxidase ALR (P55789 whole entry): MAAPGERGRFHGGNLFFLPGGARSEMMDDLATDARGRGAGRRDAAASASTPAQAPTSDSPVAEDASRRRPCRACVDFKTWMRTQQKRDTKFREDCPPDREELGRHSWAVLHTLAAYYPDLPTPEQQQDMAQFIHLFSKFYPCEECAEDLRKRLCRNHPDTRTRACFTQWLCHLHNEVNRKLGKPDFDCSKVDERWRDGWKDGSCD
Sequence of Cytochrome P450 2D6 (P10635 whole entry): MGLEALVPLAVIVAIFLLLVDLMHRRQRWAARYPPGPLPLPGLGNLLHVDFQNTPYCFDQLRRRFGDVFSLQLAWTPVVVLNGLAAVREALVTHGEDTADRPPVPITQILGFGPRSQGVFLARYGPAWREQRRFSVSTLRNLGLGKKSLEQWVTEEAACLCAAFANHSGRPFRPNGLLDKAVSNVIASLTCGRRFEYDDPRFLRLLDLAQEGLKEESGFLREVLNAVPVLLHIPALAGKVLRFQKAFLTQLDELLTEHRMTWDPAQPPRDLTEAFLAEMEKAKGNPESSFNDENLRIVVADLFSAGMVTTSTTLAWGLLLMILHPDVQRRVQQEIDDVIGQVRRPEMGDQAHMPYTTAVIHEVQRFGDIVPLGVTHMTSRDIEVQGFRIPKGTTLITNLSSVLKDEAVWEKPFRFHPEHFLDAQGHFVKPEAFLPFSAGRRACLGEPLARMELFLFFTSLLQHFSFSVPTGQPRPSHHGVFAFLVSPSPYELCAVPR

COc1ccc2c(c1)CCCc1cn[nH]c1-2
GI50 [1]: > 100 µM (inactive)
GI50 [2]: > 100 µM (inactive)
GI50 [3]: > 100 µM (inactive)

CCOC(=O)c1ccc(NC(=NS(=O)(=O)c2ccccc2C)c2ccccc2)cc1
EC50 [4]: 36.4 µM (active)
EC50 [5]: 56.2 µM (active)
AC50 [6]: 17.8 µM (inconclusive)
AC50 [7]: 25.1 µM (inconclusive)

CN1CCCN(c2ncnc3scc(-c4ccc(F)cc4)c23)CC1
IC50 [8]: 12.9 µM (active)

COc1ccc(-n2nnnc2CNC(=O)c2ccc3ccccc3c2)cc1
IC50 [8]: 14.5 µM (active)

CCOc1ccc(NCc2nnc(SCC(=O)Nc3nc(-c4ccccc4)cs3)n2-c2ccccc2)cc1
EC50 [4]: 3.65 µM (active)
EC50 [5]: 3.28 µM (active)

OCC1CCC(n2cnc3c(O)ncnc32)O1 (centres undefined)
GI50 [1]: > 100 µM (inactive)
GI50 [2]: > 100 µM (inactive)
GI50 [3]: > 100 µM (inactive)

COC(=O)c1cccc(NC(=O)c2ccc(S(=O)(=O)N3CCN(C)CC3)cc2)c1
IC50 [8]: 14.5 µM (active)

CC(C)Sc1sc(C(=O)O)c(-c2ccc(Cl)cc2)c1C#N
IC50 [8]: 13.5 µM (active)

CC(=O)/C(=N\Nc1ccc(Cl)cc1Cl)Sc1nnc(-c2ccccc2)n1-c1ccccc1
EC50 [4]: 9.61 µM (active)
EC50 [5]: 8.46 µM (active)

COC(=O)c1ccc2c(c1)C(=O)/C(=C/c1ccc(C)cc1)O2
EC50 [4]: 16.8 µM (active)
EC50 [5]: 17.2 µM (active)

COc1ccc(S(=O)(=O)Nc2ccc3c(c2)CC(=O)N([C@H](C)CO)C[C@H](C)[C@H](CN(C)S(=O)(=O)c2cccs2)O3)cc1
AC50 [9]: 0.509 µM (active)
AC50 [10]: 3.88 µM (active)

Cc1ccccc1N(C)S(=O)(=O)c1ccc2ncc(C(=O)NCC3CCCO3)c(O)c2c1 (centres undefined)
IC50 [8]: 12 µM (active)

CNC(=O)SCC(NC(=O)CCC(N)C(=O)O)C(=O)NCC(=O)O (centres undefined)
GI50 [1]: 26.4 µM (inactive)
GI50 [2]: > 59.2 µM (inactive)
GI50 [3]: 27.5 µM (inactive)

CC1[C@@]2(CCC(C)(C)O2)O[C@@H]2C=C3C4CCC5Cc6nc7c(nc6C[C@@]5(C)C4C[C@H](O)[C@@]3(C)[C@]12O)CC1CCC2C3=C[C@H]4O[C@@]5(O[C@@](C)(CO)C[C@@H]5O)C(C)[C@@]4(O)[C@]3(C)[C@@H](O)CC2[C@]1(C)C7 (some centres undefined)
GI50 [1]: 0.00112 µM (active)
GI50 [2]: 0.000365 µM (active)
GI50 [3]: 0.000365 µM (active)

Cc1ccc(C)c(Oc2cc(NC(=O)CCCn3nc(C)c([N+](=O)[O-])c3C)cc([N+](=O)[O-])c2)c1
EC50 [4]: 21.1 µM (active)
EC50 [5]: 18.9 µM (active)

O=C1C2=C(C3=NCCc4c[nH]c1c43)C1(C=C(Br)C(O)C(Br)=C1)CCN2 (centres undefined)
GI50 [1]: 1.81 µM (inactive)
GI50 [2]: 2.99 µM (inactive)
GI50 [3]: 1.25 µM (inactive)

COc1ccc(C2/C=C\CN(C(=O)c3ccccc3)[C@H](Cc3ccccc3)C(=O)N2Cc2ccc(F)cc2)cc1 (some centres undefined)
AC50 [11]: 7.46 µM (active)

CC(C)=CCc1c(C)cc2cc3c(c(O)c2c1O)C(=O)C=C(O)C3(CC=C(C)C)C/C=C(\C)CO (centres undefined)
GI50 [1]: 20.1 µM (inactive)
GI50 [2]: 35.2 µM (inactive)
GI50 [3]: 23.5 µM (inactive)

Cc1cc(C)cc(NS(=O)(=O)c2cnc(Cl)c(Cl)c2)c1
IC50 [8]: 16.6 µM (active)

Cc1c(N)nc([C@H](CC(N)=O)NC[C@H](N)C(N)=O)nc1C(=O)N[C@H](C(=O)N[C@H](C)[C@@H](O)[C@H](C)C(=O)N[C@H](C(=O)NCCc1nc(-c2nc(C(=O)NCCC[S+](C)C)cs2)cs1)[C@@H](C)O)C(OC1OC(CO)C(O)C(O)C1OC1OC(CO)C(O)C(OC(N)=O)C1O)c1c[nH]cn1 (some centres undefined)
GI50 [1]: 3.49 µM (inactive)
GI50 [2]: 0.19 µM (active)
GI50 [3]: 2.11 µM (inactive)

Cc1nn(Cc2ccccc2Cl)c(C)c1NC(=O)c1noc2c1CCCCC2
IC50 [8]: 13.8 µM (active)

c1ccc(-c2nc3nonc3nc2-c2ccccc2)cc1
CC50 [12]: 17.8 µM (active)
AC50 [11]: 1.15 µM (active)

COc1cc2c(cc1OC)CN(c1nc(CN3CCOCC3)nc3sc4c(c13)CCC(C)C4)CC2 (centres undefined)
EC50 [4]: 9.18 µM (active)
EC50 [5]: 9.91 µM (active)

Cc1c(C(=O)c2ccc(N(C)C)cc2)c2ccccn2c1CCC#N
IC50 [13]: > 50 µM (not active)
AC50 [14]: 2.73 µM (active)

CCn1c(N2CCN(S(=O)(=O)c3ccc(Cl)cc3)CC2)nc2ccccc21
EC50 [15]: 1.55 µM (active)
EC50 [16]: > 60 µM (not active)
AC50 [17]: 9.14 µM (active)
AC50 [18]: 58.3 µM (active)
AC50 [19]: 9.17 µM (active)

COc1ccc(C(NC(C)=O)c2cc(Cl)c3cccnc3c2O)cc1OC (centres undefined)
EC50 [20]: 3.99 µM (active)
EC50 [15]: 0.941 µM (active)
EC50 [16]: 1.01 µM (active)
EC50 [21]: 3.67 µM (active)
AC50 [11]: 2.3 µM (active)
AC50 [17]: 3.45 µM (active)
AC50 [18]: 3.12 µM (active)
AC50 [19]: 2.98 µM (active)

CC1CC(C)(C)CC2(C1)NC(=O)N(CC(=O)N1CCN(Cc3ccc(C#N)cc3)CC1)C2=O (centres undefined)
AC50 [17]: 1.47 µM (active)
AC50 [18]: 2.54 µM (active)
AC50 [19]: 0.65 µM (active)

FC(F)(F)C1=NC(=NNc2nnc(-c3ccccc3)c(-c3ccccc3)n2)N=C(C(F)(F)F)C1
GI50 [1]: 11.1 µM (inactive)
GI50 [2]: 10.1 µM (inactive)
GI50 [3]: 0.891 µM (active)

C[C@H](CN1CC(=O)NC(=O)C1)N1CC(=O)NC(=O)C1
GI50 [1]: 13.9 µM (inactive)
GI50 [2]: 36.8 µM (inactive)
GI50 [3]: 0.319 µM (active)

COc1cc(/C=C/C(=O)O)ccc1C(=O)O/C=C/c1ccccc1
GI50 [1]: 14.1 µM (inactive)
GI50 [2]: > 100 µM (inactive)
GI50 [3]: 25.6 µM (inactive)
